Earlier results, collected in patent US20170189326A1, “Topical Antiaging Polyphenol Compositions” (priority 2015, published 2017).

Test system: dimethylnitrosamine-induced hepatic injury
Conditions: oral administration, rats

COc1cc(/C=C/C(=O)CC(=O)/C=C/c2ccc(O)c(OC)c2)ccc1O [curcumin]
protection against dimethylnitrosamine-induced hepatic injury: protected
